For assay [1], the system named is Peripheral blood mononuclear cells. The assay can be described thus: Mixed lymphocyte reaction (MLR) test. It is filed as cell-based, human. The following applies: 50% suppression of the MLR. As to the method:
(§1) Pteridine derivatives were first dissolved (10 mM) in dimethylsulfoxide (hereinafter referred as DMSO) and further diluted in culture medium before use for the following in vitro experiments. The commercially available culture medium consisted of RPMI-1640+10% foetal calf serum (FCS). Some pteridine derivatives described the previous examples were tested in the following lymphocyte activation tests:
(§2) Peripheral blood mononuclear cells (hereinafter referred as PBMC) were isolated from heparinized peripheral blood by density gradient centrifugation over Lymphoprep (Nycomed, Maorstua, Norway). Allogeneic PBMC or Eppstein-Barr Virus-transformed human B cells [commercially available under the trade name RPMI1788 (ATCC name CCL156)] which strongly express B7-1 and B7-2 antigens were used as stimulator cells after irradiation with 30 Gy. MLR was performed in triplicate wells. After 5 days incubation at 37° C., 1 μCi [^3H]-thymidine was added to each cup. After a further 16 hours incubation, cells were harvested and counted in a β-counter. Inhibition of proliferation by a compound (drug) described in some of the previous examples was counted using the formula:
[formula] wherein cpm is the thymidine count per minute. The MLR assay is regarded by those skilled in the art as an in vitro analogue of the transplant rejection since it is based on the recognition of allogeneic major histocompatibility antigens on the stimulator leukocytes, by responding lymphocytes. Assays for CD3 and CD 28
Pteridine derivatives were first dissolved (10 mM) in dimethylsulfoxide (hereinafter referred as DMSO) and further diluted in culture medium before use for the following in vitro experiments. The commercially available culture medium consisted of RPMI-1640+10% foetal calf serum (FCS). Some pteridine derivatives described in the previous examples (as indicated in table 3 below) were tested in the following mixed lymphocyte reaction (MLR) assay.
as §2, with “CCL156)]which” for “CCL156)] which”
[formula] wherein cpm is the thymidine count per minute. The MLR assay is regarded by those skilled in the art as an in vitro analogue of the transplant rejection since it is based on the recognition of allogeneic major histocompatibility antigens on the stimulator leukocytes, by responding lymphocytes.

Assay [2] concerns Highly purified T cells stimulated by anti-CD28 mAb. The assay can be described thus: CD28 assay: T-cell proliferation stimulated by anti-CD28 mAb + PMA (BrdU). It is filed as cell-based, human. Particulars: 50% reduction in T-cell proliferation. As to the method:
as §1
(§3) T cells were purified by removing non-T cells. Briefly, monocytes were removed by cold agglutination. The resulting lymphoid cells were further purified by a cell enrichment immunocolumn [Cellect Human T commercially available from Biotex, Edmonton, Alberta, Canada)] by a process of negative selection. More than 95% of the B cells were removed with this procedure. After depletion, the resulting T cell preparation was highly purified, i.e. these cells could not be activated by phytohaemagglutinin (PHA) or rIL-2 alone at concentrations capable of stimulating RBMC prior to deletion.
(§4) Highly purified T cells (10^6/ml) were stimulated by immobilized anti-CD3 or anti-CD28 monoclonal antibodies (hereinafter referred as mAb) in the presence of phorbol myristate acetate (hereinafter referred as PMA). Anti-CD3 mAb (available from CLB, Amsterdam, Netherlands) were fixed on a 96-microwell plates by incubating the wells with 50 μl of mAb solution (1/800 dilution in culture medium). For anti-CD28 mAb (available from CLB, Amsterdam, Netherlands) 50 μl (1/650 dilution in culture medium) was added directly to the wells. Further, a 20 μl PMA (commercially available from Sigma, St. Louis, Mo., USA) solution (final concentration: 0.5 ng/ml) was added. Subsequently, 20 μl of a pteridine derivative described in the previous examples were added by serial dilution in triplicate wells. Finally 100 μl of the T-cell suspension (10^6/ml) was added. After 48-hour incubation at 37° C. in 5% CO2, 20 μl of a bromo-deuridine (hereinafter referred as BrdU) 100 μM solution (commercially available as Cell Proliferation Elisa from Boehringer-Mannheim Belgium) was added to each well. After a further overnight incubation, T-cell proliferation was measured using a calorimetric immuno-assay for qualification of cell proliferation based on the incorporation of BrdU during DNA synthesis. Optical density (hereinafter referred as OD) was measured by a Behring EL311 plate reader at 450 nm (reference wavelength: 690 nm). Inhibition of proliferation by the pteridine derivative (drug) was counted while using the formula: […]

Assay [3] concerns Highly purified T cells stimulated by anti-CD3 mAb. The assay can be described thus: CD3 assay: T-cell proliferation stimulated by immobilized anti-CD3 mAb + PMA (BrdU). Particulars: 50% reduction in T-cell proliferation, read-out: CD 3 IC50. It is filed as cell-based, human. As to the method:
as §1, §3, §4

Another assay has as its system human TNF-α. Briefly: TNF-α assay: suppression of TNF-α production by LPS-stimulated PBMC (ELISA). Particulars: LPS 1 μg/ml, 72 hours. It is filed as cell-based. The method, then:
Peripheral blood mononuclear cells (herein referred as PBMC), in response to stimulation by lipopolysaccharide (LPS), a gram-negative bacterial endotoxin, produce various […], in particular human TNF-α and IL-1 β. Inhibition of the activation of PBMC can therefore be measured by the level of suppression of the production of TNF-α or IL-1 β by PBMC in response to stimulation by LPS.
(§5) Such inhibition measurement was performed as follows: PBMC were isolated from heparinized peripheral blood by density gradient centrifugation over Lymphoprep (commercially available from Nycomed, Norway). LPS was then added to the PMBC suspension in complete medium (10^6 cells/ml) at a final concentration of 1 μg/ml. The pteridine derivative to be tested was added at different concentrations (0.1 μM, 1 μM and 10 μM) and the cells were incubated at 37° C. for 72 hours in 5% CO2. The supernatants were collected, then TNF-α and/or IL-1 β concentrations were measured with respectively an anti-TNF-α antibody or an anti-IL-1 β antibody in a sandwich ELISA (Duo Set ELISA human TNFα, commercially available from R&D Systems, United Kingdom). The calorimetric reading of the ELISA was measured by a Multiskan RC plate reader (commercially available from ThermoLabsystems, Finland) at 450 nm (reference wavelength: 690 nm). Data analysis was performed with Ascent software 2.6. (also from ThermoLabsystems, Finland): a standard curve (recombinant human TNFα) was drawn and the amount (pg/ml) of each sample on the standard curve was determined.
The % suppression of human TNFα production or human IL-1 β by the pteridine derivatives of the invention (drugs) was calculated using the formula: […]
Peripheral blood mononuclear cells (herein referred as PBMC), in response to stimulation by lipopolysaccharide (hereinafter LPS), a gram-negative bacterial endotoxin, produce various […], in particular human TNF-α. Inhibition of the activation of PBMC can therefore be measured by the level of suppression of the production of TNF-α by PBMC in response to stimulation by LPS.
as §5, with “TNF-α” for “TNF-α and/or IL-1 β”, “with” for “with respectively”, “anti-TNF-α” for “anti-TNF-α antibody or an anti-IL-1 β”, “TNF-α,” for “TNFα,”, “colorimetric” for “calorimetric”
The % suppression of human TNFα production by the pteridine derivatives of the invention (drugs) was calculated using the formula: […]

Where two headings read alike, the source gives them in different places. Bounds are passed on as bounds.

As a reminder, the IC50 is the concentration that gives 50% inhibition. As to `CCOc1nc(N)nc2ncc(-c3ccc(F)c(F)c3)nc12` [Example 16], the half-maximal inhibitory concentration (IC50) in assay [1] (Table 1) is over 10 µM; in assay [2], 4 µM; in assay [3], 9 µM.
In the case of `CCOc1nc(N)nc2ncc(-c3ccc(C(F)(F)F)cc3)nc12` [Example 18, 2-amino-6-(p-trifluoromethylphenyl)-4-ethoxy-pteridine], the half-maximal inhibitory concentration (IC50) in assay [1] (Homo sapiens, PBMC, Table 1) amounted to 10 µM; in assay [2] (Homo sapiens), 0.8 µM; in assay [3] (Homo sapiens), 10 µM.
Take `CCOc1nc(N)nc2ncc(-c3ccsc3)nc12` [Example 20, 2-amino-6-(3-thienyl)-4-ethoxy-pteridine]: the IC50 was found to be 0.7 µM in assay [2] (Homo sapiens) and 15 µM in assay [3] (Homo sapiens).
With `Cc1ccc(-c2cnc3nc(N)nc(OC(C)C)c3n2)cc1C` [Example 32, 2-amino-6-(3,4-dimethylphenyl)-4-isopropoxypteridine], the concentration for half-maximal inhibition (IC50) came out at 6.7 µM in the assay with human TNF-α (Homo sapiens, PBMC, Table 2) and 10 µM in assay [1] (Homo sapiens, PBMC, Table 1).
With `CC(=O)Nc1ccc(-c2cnc3nc(N)nc(N4CCOCC4)c3n2)cc1` [Example 72, 2-amino-4-morpholino-6-(4-acetanilide)pteridine], the IC50 was 8.4 µM with human TNF-α (Table 4) and 8.6 µM in assay [1] (Table 3).
As to `Nc1ccc(-c2cnc3nc(N)nc(N4CCOCC4)c3n2)cc1` [Example 74, 2-amino-morpholino-6-(4-aminophenyl)pteridine], the IC50 is 2.5 µM in the assay on human TNF-α (Table 4) and 1.1 µM in assay [1] (Table 3).
With `CCS(=O)(=O)Nc1cccc(-c2cnc3nc(N)nc(N4CCOCC4)c3n2)c1` [Example 97, 2-amino-4-morpholino-6-(3-ethylsulfonylaminophenyl)pteridine], the IC50 in the assay with human TNF-α (Homo sapiens, PBMC, Table 4) is over 10 µM; in assay [1] (Homo sapiens, PBMC, Table 3), 3.3 µM.
Turning to `CC(C)(C)OC(=O)N[C@@H](Cc1ccccc1)C(=O)Nc1cccc(-c2cnc3nc(N)nc(N4CCOCC4)c3n2)c1` [Example 98, 2-amino-4-morpholino-6-[3-Boc-(L)-phenylalanine-aminophenyl]pteridine], the half-inhibitory concentration (IC50) with human TNF-α (Table 4) came to 2.9 µM; in assay [1] (Table 3) it was 3.9 µM.
On to `Nc1nc(N2CCOCC2)c2nc(-c3ccc(O)cc3)cnc2n1` [Example 102, 2-amino-4-morpholino-6-(4-hydroxyphenyl)pteridine], for which the concentration for half-maximal inhibition (IC50) was 2.1 µM in the assay on human TNF-α (Homo sapiens, PBMC, Table 4) and 4.3 µM in assay [1] (Homo sapiens, PBMC, Table 3).
Turning to `CCOc1ccc(-c2cnc3nc(N)nc(N4CCOCC4)c3n2)cc1` [Example 103, 2-amino-4-morpholino-6-(4-ethoxyphenyl)pteridine], the concentration for half-maximal inhibition (IC50) with human TNF-α (Homo sapiens, PBMC, Table 4) is over 10 µM; in assay [1] (Homo sapiens, PBMC, Table 3) it was 3.7 µM.
As to `CCCOc1ccc(-c2cnc3nc(N)nc(N4CCOCC4)c3n2)cc1` [Example 107, 2-amino-4-morpholino-6-(4-propoxy-phenyl)pteridine], the concentration for half-maximal inhibition (IC50) is over 10 µM with human TNF-α (Homo sapiens, PBMC, Table 4) and 6.8 µM in assay [1] (Homo sapiens, PBMC, Table 3).
For `CCOC(=O)COc1ccc(-c2cnc3nc(N)nc(N4CCOCC4)c3n2)cc1` [Example 109, 2-amino-4-morpholino-6-(4-phenoxy-acetic acid ethyl ester) pteridine], half-maximal inhibition with human TNF-α (Table 4) (IC50) was put at 0.6 µM.
On to `COc1ccc(-c2cnc3nc(N)nc(N(CCO)CCO)c3n2)cc1OC` [Example 112], for which the IC50 in the assay with human TNF-α (Table 4) turned out to be 3.4 µM; in assay [1] (Table 3), 6 µM.
The compound `COc1ccc(-c2cnc3nc(N)nc(NCc4ccccc4)c3n2)cc1OC` [Example 113] registered a half-maximal inhibitory concentration (IC50) with human TNF-α (Table 4) of 6.5 µM.
For the compound `COc1ccc(-c2cnc3nc(N)nc(NCCc4ccccc4)c3n2)cc1OC` [Example 114], the IC50 in the assay with human TNF-α (Table 4) worked out at 7.1 µM; in assay [1] (Table 3) it was 6 µM.
For `COc1ccc(-c2cnc3nc(N)nc(N4CCC(C)CC4)c3n2)cc1OC` [Example 115] the same measures were 0.3 µM and 0.8 µM.
Consider `COc1ccc(-c2cnc3nc(N)nc(NCc4cccs4)c3n2)cc1OC` [Example 116], for which the figures for the concentration for half-maximal inhibition (IC50) (in the assay with human TNF-α (Table 4); in assay [1] (Table 3)) were 7.2 µM and 4.1 µM, respectively.
`COc1ccc(-c2cnc3nc(N)nc(N4CC=CCC4)c3n2)cc1OC` [Example 117] yielded a half-maximal inhibitory concentration (IC50) in the assay on human TNF-α (Table 4) of 0.5 µM.
For `COc1ccc(-c2cnc3nc(N)nc(N4CCSCC4)c3n2)cc1OC` [Example 118], the IC50 was determined as 0.5 µM in the assay with human TNF-α (Table 4) and 0.4 µM in assay [1] (Table 3).
Regarding `CC[C@@H](C)Nc1nc(N)nc2ncc(-c3ccc(OC)c(OC)c3)nc12` [Example 119], the IC50 came out at 0.2 µM with human TNF-α (Table 4) and 0.5 µM in assay [1] (Table 3).
Regarding `CC[C@H](C)Nc1nc(N)nc2ncc(-c3ccc(OC)c(OC)c3)nc12` [Example 120], the results for the IC50 (in the assay with human TNF-α (Table 4); in assay [1] (Table 3)) were 0.3 µM and 0.2 µM, respectively.

Source of the values: patent US7501513B2, “Immunosuppressive effects of pteridine derivatives” (4 AZA Bioscience NV, priority 2003, dated 2009).
